Key:
[1] = system: normal NK cells expanded with K562-aAPC; test: percent inhibition of viability; higher = more inhibition; details: 72 h, IL-2 2.5 ng/mL
Protocol: (§1)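 Drug sensitivity and resistance testing on K562-aAPC-expanded normal NK cells: 5 concentrations (10-fold steps over a 10,000-fold range), 72 h at 37 °C, viability by CellTiter-Glo normalised to DMSO and benzethonium chloride controls; DSS from the fitted curve.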

[2] = system: DERL-7 (IL-2 2.5 ng/mL); test: as above; details: 72 h
[3] = system: IMC-1 (IL-2 20 ng/mL); test: as above; details: 72 h
[4] = system: KAI3 (IL-2 2.5 ng/mL); test: as above; details: 72 h
[5] = system: KHYG-1 (IL-2 2.5 ng/mL); test: as above; details: 72 h
[6] = system: NK-92 (IL-2 2.5 ng/mL); test: as above; details: 72 h
[7] = system: NK-YS (IL-2 2.5 ng/mL); test: as above; details: 72 h
[8] = system: NKL (IL-2 2.5 ng/mL); test: as above; details: 72 h
[9] = system: SNK-6 (IL-2 2.5 ng/mL); test: as above; details: 72 h
[10] = system: YT (IL-2 2.5 ng/mL); test: as above; details: 72 h
[11] = system: normal primary NK cells, pool 1 (3 donors) (IL-2 2.5 ng/mL); test: as above; details: 72 h
[12] = system: normal primary NK cells, pool 1 (3 donors), resting (IL-2 0 ng/mL); test: as above; details: 72 h
[13] = system: normal primary NK cells, pool 2 (3 donors) (IL-2 2.5 ng/mL); test: as above; details: 72 h
[14] = system: normal primary NK cells, pool 3 (3 donors) (IL-2 2.5 ng/mL); test: as above; details: 72 h
[15] = system: normal NK cells expanded with K562-aAPC; test: drug sensitivity score (DSS) (DSS units); higher = more sensitive; extreme values may be limits of the assay; details: 72 h; IL-2 2.5 ng/mL
Protocol: as §1

[16] = system: DERL-7 (IL-2 2.5 ng/mL); test: as above; details: 72 h
[17] = system: IMC-1 (IL-2 20 ng/mL); test: as above; details: 72 h
[18] = system: KAI3 (IL-2 2.5 ng/mL); test: as above; details: 72 h
[19] = system: KHYG-1 (IL-2 2.5 ng/mL); test: as above; details: 72 h
[20] = system: NK-92 (IL-2 2.5 ng/mL); test: as above; details: 72 h
[21] = system: NK-YS (IL-2 2.5 ng/mL); test: as above; details: 72 h
[22] = system: NKL (IL-2 2.5 ng/mL); test: as above; details: 72 h
[23] = system: SNK-6 (IL-2 2.5 ng/mL); test: as above; details: 72 h
[24] = system: YT (IL-2 2.5 ng/mL); test: as above; details: 72 h
[25] = system: normal primary NK cells, pool 1 (3 donors) (IL-2 2.5 ng/mL); test: as above; details: 72 h
[26] = system: normal primary NK cells, pool 1 (3 donors), resting (IL-2 0 ng/mL); test: as above; details: 72 h
[27] = system: normal primary NK cells, pool 2 (3 donors) (IL-2 2.5 ng/mL); test: as above; details: 72 h
[28] = system: normal primary NK cells, pool 3 (3 donors) (IL-2 2.5 ng/mL); test: as above; details: 72 h

O=C(O)c1ccc(Nc2ncc3c(n2)-c2ccc(Cl)cc2C(c2c(F)cccc2F)=NC3)cc1 [MLN-8054] (max concentration tested 10000 nM)
percent inhibition of viability [%]
Details | 1 nM | 10 nM | 100 nM | 1000 nM | 10000 nM
[1] | 0.34 | 1.46 | -1.49 | 39.7 | 57.7
[2] | -1.42 | -2.27 | -2.98 | 42.2 | 63.5
[3] | 2.52 | 4.23 | 18.1 | 27.9 | 87.8
[4] | 5.5 | 5.3 | 20.2 | 51.7 | 71.4
[5] | 4.03 | 6.1 | 20 | 64.1 | 79
[6] | 7.92 | 3.31 | 17.5 | 33.8 | 65.2
[7] | 5.25 | 3.3 | 40.5 | 74 | 86.5
[8] | 12.4 | 12.3 | 30.5 | 66.5 | 36.9
[9] | -1.52 | 0.61 | 53.3 | 78.6 | 81.5
[10] | 4.9 | 5.88 | 21 | 51.3 | 62
[11] | -5.64 | -11.5 | -5.12 | -17.1 | 3.94
[12] | 19.2 | -7.07 | 0.26 | -14.7 | 13.3
[13] | 1.69 | -1.38 | 2.04 | -0.41 | 21.9
[14] | 5.09 | 2.04 | 1 | 3.1 | 12.9

Details | drug sensitivity score
[15] | 7.83
[16] | 8.47
[17] | 7.96
[18] | 12.2
[19] | 14.3
[20] | 8.69
[21] | 19
[22] | 14
[23] | 21.2
[24] | 11.9
[25] | 0
[26] | 0.03
[27] | 0.7
[28] | 0.29

S=c1[nH]cnc2nc[nH]c12 [Mercaptopurine] (max concentration tested 10000 nM)
percent inhibition of viability [%]
Details | 1 nM | 10 nM | 100 nM | 1000 nM | 10000 nM
[1] | -5.16 | 4.06 | -1.48 | 3.65 | 11.2
[2] | -4.35 | -1.44 | 0.98 | 9.85 | 47
[3] | -3.21 | -3.47 | 2.38 | 21.7 | 91.4
[4] | -5.39 | -4.2 | -7.01 | 6.69 | 53.7
[5] | -2.69 | -0.22 | 5.34 | 30 | 99.3
[6] | -10.3 | -10.7 | 12.1 | 38.5 | 53.5
[7] | -2.27 | -1.87 | 9.74 | 52.6 | 90.4
[8] | -15.5 | 0 | -11.9 | -4.76 | 6.22
[9] | 11.4 | 16.1 | 38.4 | 75.4 | 94.4
[10] | -0.59 | -2.35 | 3.64 | 24.6 | 81.8
[11] | -1.1 | -6.11 | -2.9 | -10.7 | 0.61
[12] | -2.87 | -18.3 | -8.34 | -34.9 | -22.3
[13] | -14.1 | -7.32 | -6.91 | -13.4 | 3.06
[14] | -16.8 | -9.02 | -3.33 | -7.89 | 8.16

Details | drug sensitivity score
[15] | 0.11
[16] | 4.05
[17] | 8.45
[18] | 3.99
[19] | 9.71
[20] | 8.34
[21] | 11.6
[22] | 0
[23] | 19.7
[24] | 8.11
[25] | 0
[26] | 0
[27] | 0
[28] | 0

C[C@H]1C[C@@H]2[C@H]([C@@H](O)C[C@@]3(C)[C@H]2CC[C@]3(O)C(=O)CO)[C@@]2(C)C=CC(=O)C=C12 [Methylprednisolone] (max concentration tested 10000 nM)
percent inhibition of viability [%]
Details | 1 nM | 10 nM | 100 nM | 1000 nM | 10000 nM
[1] | -4.84 | 16.6 | 51.6 | 67.2 | 74.4
[2] | -1.31 | 19 | 94 | 100 | 101
[3] | -4.86 | -2.72 | -15.2 | -4.89 | -2.93
[4] | -8.86 | -6.63 | -0.28 | 7.95 | 30.7
[5] | -4.65 | 5.05 | 18.2 | 46 | 55.1
[6] | -14.6 | -20.1 | -27.4 | -10.6 | 3.24
[7] | -6.22 | -4.6 | 0.39 | 6.37 | 16.5
[8] | 4.02 | 31.1 | 57 | 63.6 | 67.6
[9] | 7.96 | -13.3 | -4.6 | -6.43 | 15.4
[10] | -5.71 | 10.2 | 19.4 | 43.3 | 53.1
[11] | 6.03 | 24 | 56.2 | 75.3 | 81.7
[12] | -1.18 | 47.6 | 75.4 | 84.2 | 87.2
[13] | -6.66 | 20.1 | 52.2 | 69.9 | 76.8
[14] | -7.17 | 8.16 | 33.7 | 46.2 | 58.4

Details | drug sensitivity score
[15] | 20.6
[16] | 32.1
[17] | 0
[18] | 2.54
[19] | 10.5
[20] | 0
[21] | 0.89
[22] | 23
[23] | 0.13
[24] | 10.3
[25] | 23.3
[26] | 31.7
[27] | 21.3
[28] | 13.5

FC(F)(F)c1ccc(/C=C/c2nc(COc3ccc(CCCCn4ccnn4)cc3)co2)cc1 [Mubritinib] (max concentration tested 1000 nM)
percent inhibition of viability [%]
Details | 0.1 nM | 1 nM | 10 nM | 100 nM | 1000 nM
[1] | -6.01 | -7.06 | -7.66 | 9.52 | 14.1
[2] | 1.75 | 0.44 | 5.74 | 24.8 | 27
[3] | -1.73 | -4.86 | 37.2 | 86.6 | 31.2
[4] | 3.33 | -9.68 | -0.43 | 26.5 | 45.4
[5] | -2.15 | -7.85 | 17 | 42.5 | 66.5
[6] | -8.31 | -12.6 | 7.62 | 30.8 | 42.3
[7] | -3.84 | -4.99 | 8.6 | 64 | 81.2
[8] | -16.4 | -8.04 | 7.63 | 38.2 | 57.6
[9] | -13.7 | -12.2 | 4.91 | 4.95 | 7.75
[10] | -2.71 | -3.53 | 24 | 44.2 | 39.6
[11] | -7.65 | 0.13 | 21.1 | 48.2 | 50.2
[12] | 10 | 1.44 | 28.5 | 61 | 64.8
[13] | -5.29 | -7.28 | 16.6 | 27.6 | 34.2
[14] | -9.77 | -2.9 | 15.1 | 21.5 | 34

Details | drug sensitivity score
[15] | 0.75
[16] | 4.52
[17] | 20.6
[18] | 5.59
[19] | 9.82
[20] | 6.23
[21] | 13
[22] | 8.04
[23] | 0
[24] | 11
[25] | 11.5
[26] | 14.7
[27] | 7.39
[28] | 4.94

— the supplement of paper PMC5908809
